BindingDB's records for PubMed 8450829 (Cnrs, 1993)

target: 5-hydroxytryptamine receptor 5B (Mus musculus, UniProt P31387)
Sequence (P31387 whole entry): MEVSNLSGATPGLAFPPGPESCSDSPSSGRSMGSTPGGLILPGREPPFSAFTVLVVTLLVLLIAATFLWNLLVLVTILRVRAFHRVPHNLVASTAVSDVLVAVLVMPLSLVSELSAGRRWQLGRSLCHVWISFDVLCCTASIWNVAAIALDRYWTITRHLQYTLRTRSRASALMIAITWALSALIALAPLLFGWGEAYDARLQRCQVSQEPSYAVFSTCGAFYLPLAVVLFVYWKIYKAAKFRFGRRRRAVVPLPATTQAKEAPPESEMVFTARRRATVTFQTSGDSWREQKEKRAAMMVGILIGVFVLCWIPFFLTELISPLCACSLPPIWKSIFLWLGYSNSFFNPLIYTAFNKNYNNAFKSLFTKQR

| SMILES | Ki [nM] |
| --- | --- |
| CC[C@@H](CO)NC(=O)[C@@H]1C=C2c3cccc4c3c(cn4C)C[C@H]2N(C)C1 | 126 |
| NCCc1c[nH]c2ccc(O)cc12 [[3H]-5-HT] | 251 |
| NCC(O)c1ccc(O)c(O)c1 (stereo not drawn) [Noradrenaline,(+)] | > 10000 |
| NCCc1ccc(O)c(O)c1 | > 10000 |
| CCCN(CCC)C1CCc2cccc(O)c2C1 (stereo not drawn) | 398 |
| FC(F)(F)c1cccc(N2CCNCC2)c1 [TFMPP] | 3980 |
| CN(C)CCc1c[nH]c2ccc(O)cc12 [3-[2-(dimethylamino)ethyl]indol-5-ol] | 1580 |
| CSc1ccc2c(c1)C(N1CCN(C)CC1)Cc1ccccc1S2 (stereo not drawn) [methanesulfonic acid;1-methyl-4-(3-methylsulfanyl-5,6-dihydrobenzo[b][1]benzothiepin-5-yl)piperazine] | 15.8 |
| COc1ccc2[nH]cc(C3=CCNCC3)c2c1 [5-Methoxy-3-(1,2,3,6-tetrahydro-pyridin-4-yl)-1H-indole(RU-24969)] | 398 |
| O=C(c1ccc(F)cc1)C1CCN(CCn2c(=O)[nH]c3ccccc3c2=O)CC1 [3-(2-{4-[(4-fluorophenyl)carbonyl]piperidin-1-yl}ethyl)-1,2,3,4-tetrahydroquinazoline-2,4-dione] | 1580 |
| NCCc1c[nH]c2ccc(C(N)=O)cc12 [[3H]-5-carboxamidotryptamine] | 39.8 |
| CN1C[C@H](C(=O)N[C@]2(C)O[C@@]3(O)[C@@H]4CCCN4C(=O)[C@H](Cc4ccccc4)N3C2=O)C=C2c3cccc4[nH]cc(c34)C[C@H]21 [12'-hydroxy-2'-methyl-5'alpha-(phenylmethyl)ergotaman-3',6',18-trione] | 3.16 |
| CNS(=O)(=O)Cc1ccc2[nH]cc(CCN(C)C)c2c1 [Sumax] | 7940 |
